Measurements as given in patent US20060292653A1, “Metal mediated fluorescence superquenching assays for detection of phosphorylation and dephosphorylation of quencher-labeled substrates” (priority 2005, published 2006).

Key:
Assay type in all cases: biochemical
PI3 alpha = molecular target: T1, PI3 alpha (Homo sapiens, UniProt P42336); test: Enhancer activity, real-time (kinetic) versus endpoint monitoring
T1 construct: purchased Upstate (Lake Placid, N.Y.)
Source text: (§1) Kinetic or real-time assays allow one to observe the mode of action of inhibitors and activator of enzyme activity in “real time”. Several inhibitor profiles are contemplated herein.
(§2) Another type of inhibitor profile utilizes the mode of action of enhancers. Enhancers may cause a very steep increase in activity (compared to control) within several minutes of reaction and then flatten out over time to an activity equal to that of the control. Thus, endpoint measurement could miss these enhancers. For example, Trypohostin 35, Trypohostin 25 and GW 5074 are enhancers of PI3 alpha, beta, and delta, respectively, in real time, and result in a >50% increase of activity within 5 minutes of reaction compared to ˜20% when monitored in endpoint mode. Enhancers may not be of therapeutic value for PI3Ks (since their pathological effect is exerted mainly by over-activity to begin with) but knowledge of chemical structure of enhancers may facilitate identification and/or confirmation of environmental pathogens, which may cause disease.

PI3K δ = molecular target: T2, PI3K δ (Homo sapiens, UniProt O00329); settings: ratiometric 490 nm/574 nm
T2 construct: purchased Upstate (Lake Placid, N.Y.)
T2 sequence (O00329 whole entry, species assumed): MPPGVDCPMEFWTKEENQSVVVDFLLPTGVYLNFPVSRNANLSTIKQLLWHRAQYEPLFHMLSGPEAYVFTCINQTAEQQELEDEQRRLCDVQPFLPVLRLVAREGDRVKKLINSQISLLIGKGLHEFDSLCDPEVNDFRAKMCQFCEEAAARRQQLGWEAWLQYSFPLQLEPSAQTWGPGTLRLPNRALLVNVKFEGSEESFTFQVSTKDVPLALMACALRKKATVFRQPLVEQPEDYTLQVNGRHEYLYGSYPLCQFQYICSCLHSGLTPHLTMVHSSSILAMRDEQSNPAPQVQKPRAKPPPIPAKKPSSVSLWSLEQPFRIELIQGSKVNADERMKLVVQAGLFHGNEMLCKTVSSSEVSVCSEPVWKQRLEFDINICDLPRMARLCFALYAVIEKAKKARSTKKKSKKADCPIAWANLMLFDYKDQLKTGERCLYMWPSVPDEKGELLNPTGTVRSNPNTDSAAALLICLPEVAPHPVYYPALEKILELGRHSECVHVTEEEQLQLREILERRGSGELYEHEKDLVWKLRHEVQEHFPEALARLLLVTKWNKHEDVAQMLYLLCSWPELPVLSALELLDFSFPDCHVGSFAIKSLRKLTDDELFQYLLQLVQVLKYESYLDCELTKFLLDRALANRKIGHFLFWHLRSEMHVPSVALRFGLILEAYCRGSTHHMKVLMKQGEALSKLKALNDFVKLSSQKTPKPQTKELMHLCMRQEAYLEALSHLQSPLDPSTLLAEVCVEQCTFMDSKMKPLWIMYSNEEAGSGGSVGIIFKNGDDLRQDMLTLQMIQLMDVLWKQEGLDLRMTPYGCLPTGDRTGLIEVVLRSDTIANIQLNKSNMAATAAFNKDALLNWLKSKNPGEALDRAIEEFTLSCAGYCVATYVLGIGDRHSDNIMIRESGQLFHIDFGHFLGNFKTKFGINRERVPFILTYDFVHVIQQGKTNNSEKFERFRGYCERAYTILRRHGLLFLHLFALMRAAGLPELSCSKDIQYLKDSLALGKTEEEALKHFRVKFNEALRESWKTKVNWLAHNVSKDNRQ
T2 sequence (P27986 whole entry partner, species assumed): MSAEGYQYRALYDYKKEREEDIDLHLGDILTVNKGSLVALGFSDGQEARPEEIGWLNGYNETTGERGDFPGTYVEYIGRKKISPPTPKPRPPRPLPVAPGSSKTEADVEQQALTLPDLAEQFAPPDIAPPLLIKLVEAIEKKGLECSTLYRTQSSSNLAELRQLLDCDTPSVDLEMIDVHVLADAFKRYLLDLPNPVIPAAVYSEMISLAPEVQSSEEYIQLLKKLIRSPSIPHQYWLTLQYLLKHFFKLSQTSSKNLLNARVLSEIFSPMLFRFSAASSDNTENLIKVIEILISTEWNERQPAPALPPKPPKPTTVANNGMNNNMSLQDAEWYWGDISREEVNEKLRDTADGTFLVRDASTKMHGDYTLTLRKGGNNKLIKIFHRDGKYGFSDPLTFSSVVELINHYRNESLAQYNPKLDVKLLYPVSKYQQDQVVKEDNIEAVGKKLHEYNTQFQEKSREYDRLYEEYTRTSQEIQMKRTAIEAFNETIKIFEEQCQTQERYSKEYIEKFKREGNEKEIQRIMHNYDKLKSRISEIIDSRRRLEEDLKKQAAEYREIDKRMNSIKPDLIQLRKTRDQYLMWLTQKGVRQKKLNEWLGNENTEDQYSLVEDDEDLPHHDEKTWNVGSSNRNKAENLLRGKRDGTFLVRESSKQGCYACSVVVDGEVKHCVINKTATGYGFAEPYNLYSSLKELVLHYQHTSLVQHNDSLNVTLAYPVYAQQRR
Protocol: Percent activities are plotted for each compound screened using the ratio of wavelengths at 490 nm/574 nm. Inhibition values were calculated relative to positive and negative controls wells and corrected for background (filled squares, filled diamonds). […] Final concentrations of enzyme, substrate and ATP were 2.6 nM, 250 nM and 50 μM. The delta RFU between reactions in the presence and absence of enzyme were obtained and used to calculate % inhibition.

PI3 beta = molecular target: T3, PI3 beta (Homo sapiens, UniProt P42338); test: Enhancer activity, real-time (kinetic) versus endpoint monitoring
T3 construct: purchased Upstate (Lake Placid, N.Y.)
T3 sequence (P42338 whole entry): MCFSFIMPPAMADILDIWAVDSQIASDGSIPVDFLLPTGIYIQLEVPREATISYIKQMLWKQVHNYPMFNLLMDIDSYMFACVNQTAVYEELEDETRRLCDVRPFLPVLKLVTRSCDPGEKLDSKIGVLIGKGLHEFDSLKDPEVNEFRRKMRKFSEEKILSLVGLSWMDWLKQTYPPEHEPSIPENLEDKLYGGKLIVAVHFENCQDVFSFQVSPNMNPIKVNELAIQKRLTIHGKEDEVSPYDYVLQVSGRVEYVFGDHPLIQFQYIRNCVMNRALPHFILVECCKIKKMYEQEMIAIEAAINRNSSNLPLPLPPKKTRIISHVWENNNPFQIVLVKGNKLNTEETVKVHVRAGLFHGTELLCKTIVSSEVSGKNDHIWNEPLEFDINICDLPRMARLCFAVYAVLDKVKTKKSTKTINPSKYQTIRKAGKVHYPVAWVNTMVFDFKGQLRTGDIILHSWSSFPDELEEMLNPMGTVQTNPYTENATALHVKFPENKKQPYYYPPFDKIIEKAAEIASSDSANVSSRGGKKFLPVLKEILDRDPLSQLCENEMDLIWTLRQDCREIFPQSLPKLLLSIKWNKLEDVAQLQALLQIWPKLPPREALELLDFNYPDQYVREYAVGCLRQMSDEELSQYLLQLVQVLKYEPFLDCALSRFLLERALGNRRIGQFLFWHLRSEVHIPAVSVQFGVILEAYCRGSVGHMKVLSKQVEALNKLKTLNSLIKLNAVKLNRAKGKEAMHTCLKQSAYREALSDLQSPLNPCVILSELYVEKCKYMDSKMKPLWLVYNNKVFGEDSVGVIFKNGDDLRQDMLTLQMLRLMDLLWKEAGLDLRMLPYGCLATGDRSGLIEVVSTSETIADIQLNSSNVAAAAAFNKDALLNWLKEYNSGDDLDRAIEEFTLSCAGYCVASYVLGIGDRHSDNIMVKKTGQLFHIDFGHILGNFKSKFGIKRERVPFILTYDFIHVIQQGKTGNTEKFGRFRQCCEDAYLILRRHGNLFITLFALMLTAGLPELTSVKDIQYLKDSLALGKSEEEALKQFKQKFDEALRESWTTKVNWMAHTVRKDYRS
T3 sequence (P27986 whole entry partner): as the sequence (P27986 whole entry partner, species assumed) above
Source text: as §1, §2

PI3 delta = molecular target: T4, PI3 delta (Homo sapiens, UniProt O00329); test: as above
T4 construct: purchased Upstate (Lake Placid, N.Y.)
T4 sequence (O00329 whole entry, species assumed): as the sequence (O00329 whole entry, species assumed) above
T4 sequence (P27986 whole entry partner, species assumed): as the sequence (P27986 whole entry partner, species assumed) above
Source text: as §1, §2

[1] = real time, within 5 minutes of reaction

T1 sequence (P42336 whole entry, species assumed): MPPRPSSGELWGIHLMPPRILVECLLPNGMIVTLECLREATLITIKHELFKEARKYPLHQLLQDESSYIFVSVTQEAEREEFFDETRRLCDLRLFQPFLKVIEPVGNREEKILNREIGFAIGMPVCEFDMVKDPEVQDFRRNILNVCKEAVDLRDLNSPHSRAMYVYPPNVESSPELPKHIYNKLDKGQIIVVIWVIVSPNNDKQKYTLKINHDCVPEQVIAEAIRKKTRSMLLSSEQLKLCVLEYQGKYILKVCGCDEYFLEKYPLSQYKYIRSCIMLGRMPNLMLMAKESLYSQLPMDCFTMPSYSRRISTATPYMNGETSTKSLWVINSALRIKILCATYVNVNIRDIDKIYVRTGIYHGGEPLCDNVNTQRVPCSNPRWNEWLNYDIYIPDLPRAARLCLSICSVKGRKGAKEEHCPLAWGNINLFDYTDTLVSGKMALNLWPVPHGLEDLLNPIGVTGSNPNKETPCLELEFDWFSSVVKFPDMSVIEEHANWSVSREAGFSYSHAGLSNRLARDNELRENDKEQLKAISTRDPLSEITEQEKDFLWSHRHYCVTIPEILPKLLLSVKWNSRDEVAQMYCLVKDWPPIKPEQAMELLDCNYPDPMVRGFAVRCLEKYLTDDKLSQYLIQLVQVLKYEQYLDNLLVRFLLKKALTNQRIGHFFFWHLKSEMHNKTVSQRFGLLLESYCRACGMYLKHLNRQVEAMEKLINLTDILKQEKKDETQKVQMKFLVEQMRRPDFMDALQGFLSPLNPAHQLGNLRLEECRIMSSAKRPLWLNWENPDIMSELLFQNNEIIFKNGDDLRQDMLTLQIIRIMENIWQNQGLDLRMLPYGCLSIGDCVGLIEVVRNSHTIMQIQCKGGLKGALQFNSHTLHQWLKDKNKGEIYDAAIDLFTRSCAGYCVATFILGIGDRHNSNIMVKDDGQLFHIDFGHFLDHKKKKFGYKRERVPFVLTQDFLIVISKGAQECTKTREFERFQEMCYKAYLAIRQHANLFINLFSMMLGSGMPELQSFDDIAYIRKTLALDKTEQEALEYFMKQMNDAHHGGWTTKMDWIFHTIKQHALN
T1 sequence (P27986 whole entry partner, species assumed): as the sequence (P27986 whole entry partner, species assumed) above

Trypohostin 35
increase of activity compared to control (PI3 alpha; endpoint mode): ~20%
increase of activity compared to control (PI3 alpha; [1]): > 50%

O.O.O=c1c(O)c(-c2ccc(O)c(O)c2)oc2cc(O)cc(O)c12 [Quercetin Dihydrate]
identification as inhibitor in the 84 compound screen (PI3K δ): correctly identified

N#CC(C#N)=Cc1cc(O)c(O)c(O)c1 [Trypohostin 25]
increase of activity compared to control (PI3 beta; endpoint mode): ~20%
increase of activity compared to control (PI3 beta; [1]): > 50%

O=C1Nc2ccc(I)cc2/C1=C/c1cc(Br)c(O)c(Br)c1 [GW 5074]
increase of activity compared to control (PI3 delta; endpoint mode): ~20%
increase of activity compared to control (PI3 delta; [1]): > 50%
